Key:
[1] = target: T1, recombinant human B3GALNT2 (Homo sapiens, UniProt Q8NCR0); assay: phosphatase coupled universal glycosyltransferase assay, B3GALNT2; assay type: biochemical; settings: 0.4 mM nucleotide sugar donor, 2 mM acceptor benzyl-β-GlcNAc, 1 μg B3GALNT2, 37° C., 20 minutes; compared with UDP-GalNAc (FIG. 8)
T1 construct: purchased R&D Systems and/or Bio-Techne
T1 sequence (Q8NCR0 1-500): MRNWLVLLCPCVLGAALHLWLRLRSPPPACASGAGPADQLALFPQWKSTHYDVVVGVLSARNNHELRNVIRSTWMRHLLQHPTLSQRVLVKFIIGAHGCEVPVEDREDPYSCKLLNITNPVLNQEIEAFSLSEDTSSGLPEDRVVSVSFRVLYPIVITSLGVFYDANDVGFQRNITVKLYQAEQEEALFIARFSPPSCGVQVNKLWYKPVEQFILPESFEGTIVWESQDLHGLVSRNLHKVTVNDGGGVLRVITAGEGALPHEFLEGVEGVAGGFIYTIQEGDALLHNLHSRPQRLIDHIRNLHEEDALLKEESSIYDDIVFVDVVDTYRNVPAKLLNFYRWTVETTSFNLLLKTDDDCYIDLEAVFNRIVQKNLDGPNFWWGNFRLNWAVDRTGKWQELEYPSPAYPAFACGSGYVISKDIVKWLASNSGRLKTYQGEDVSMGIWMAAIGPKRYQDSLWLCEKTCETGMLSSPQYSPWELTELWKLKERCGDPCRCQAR
Description: (§1) Using a phosphatase coupled universal glycosyltransferase assay, an analysis of the activity of B3GALNT2 and OGT on regular nucleotide sugar as compared to azido nucleotide sugar was performed. For the B3GALNT2 assay, 0.4 mM nucleotide sugar donor (UDP-GalNAc or UDP-GalNAz), 2 mM of acceptor substrate benzyl-β-GlcNAc, and 0.1 μg of coupling phosphatase 1 were combined with 1 μg of B3GALNT2 in 50 μL of assay buffer of 25 mM Tris at pH 7.5, 10 mM MnCl2 and 10 mM CaCl2 at 37° C. for 20 minutes. For the OGT assay, 0.4 mM nucleotide sugar donor (UDP-GlcNAc or UDP-GlcNAz), 0.2 mM of acceptor OGT substrate, and 0.1 μg of coupling phosphatase 1 were combined with 2.5 μg of OGT in 50 μL of assay buffer of 25 mM Tris at pH 7.5, 10 mM MnCl2 and 10 mM CaCl2 at 37° C. for 20 minutes. Both assays were performed according to the Universal Glycosyltransferase Assay Kit from R&D Systems®. FIG. 8 is a bar graph of the activity of B3GALNT2 and OGT on regular nucleotide sugars compared to azido nucleotide sugars.

[2] = target: T2, recombinant human O-GlcNAc transferase (OGT) (Homo sapiens, UniProt O15294); assay: phosphatase coupled universal glycosyltransferase assay, OGT; assay type: biochemical; settings: 0.4 mM nucleotide sugar donor, 0.2 mM acceptor OGT substrate, 2.5 μg OGT, 37° C., 20 minutes (FIG. 8)
T2 construct: purchased R&D Systems and/or Bio-Techne
T2 sequence (O15294 1-1046): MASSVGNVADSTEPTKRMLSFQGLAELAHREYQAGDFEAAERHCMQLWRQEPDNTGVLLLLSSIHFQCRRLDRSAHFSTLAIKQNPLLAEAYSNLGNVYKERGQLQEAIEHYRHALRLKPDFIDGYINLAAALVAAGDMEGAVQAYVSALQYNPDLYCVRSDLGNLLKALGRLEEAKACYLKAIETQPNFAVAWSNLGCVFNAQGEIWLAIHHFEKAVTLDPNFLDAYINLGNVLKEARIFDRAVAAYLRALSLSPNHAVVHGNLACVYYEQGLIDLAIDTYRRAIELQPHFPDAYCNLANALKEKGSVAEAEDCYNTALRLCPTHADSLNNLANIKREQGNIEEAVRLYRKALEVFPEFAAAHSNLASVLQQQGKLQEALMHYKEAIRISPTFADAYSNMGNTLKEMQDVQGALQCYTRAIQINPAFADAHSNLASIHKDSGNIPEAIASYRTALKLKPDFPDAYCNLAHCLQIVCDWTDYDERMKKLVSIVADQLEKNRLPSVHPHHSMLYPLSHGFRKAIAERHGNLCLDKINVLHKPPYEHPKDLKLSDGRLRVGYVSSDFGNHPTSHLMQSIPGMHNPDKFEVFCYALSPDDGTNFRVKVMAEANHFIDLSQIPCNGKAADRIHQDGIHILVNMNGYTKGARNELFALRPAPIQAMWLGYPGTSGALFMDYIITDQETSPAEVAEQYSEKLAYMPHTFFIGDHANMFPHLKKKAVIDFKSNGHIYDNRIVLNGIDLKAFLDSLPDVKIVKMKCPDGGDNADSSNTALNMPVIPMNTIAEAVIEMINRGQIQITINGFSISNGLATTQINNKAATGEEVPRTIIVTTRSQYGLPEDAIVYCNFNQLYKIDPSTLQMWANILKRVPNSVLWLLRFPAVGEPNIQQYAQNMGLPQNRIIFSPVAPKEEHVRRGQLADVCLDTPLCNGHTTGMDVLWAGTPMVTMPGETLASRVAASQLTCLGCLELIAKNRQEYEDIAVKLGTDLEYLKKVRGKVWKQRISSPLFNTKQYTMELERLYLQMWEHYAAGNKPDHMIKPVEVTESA
Description: as §1

## [N-]=[N+]=NCC(=O)N[C@H]1[C@@H](OP(=O)(O)OP(=O)(O)OC[C@H]2O[C@@H](n3ccc(=O)[nH]c3=O)[C@H](O)[C@@H]2O)O[C@H](CO)[C@H](O)[C@@H]1O [UDP-GalNAz]
[1]
  activity of B3GALNT2 on azido nucleotide sugar compared to regular nucleotide sugar: more active on UDP-GalNAz than on UDP-GalNAc

## CC(=O)N[C@H]1[C@@H](OP(=O)(O)OP(=O)(O)OC[C@H]2O[C@@H](n3ccc(=O)[nH]c3=O)[C@H](O)[C@@H]2O)O[C@H](CO)[C@@H](O)[C@@H]1O [UDP-GlcNAc]
[2]
  activity of OGT on azido nucleotide sugar compared to regular nucleotide sugar: equally active

## [N-]=[N+]=NCC(=O)N[C@H]1[C@@H](OP(=O)(O)OP(=O)(O)OC[C@H]2O[C@@H](n3ccc(=O)[nH]c3=O)[C@H](O)[C@@H]2O)O[C@H](CO)[C@@H](O)[C@@H]1O [UDP-GlcNAz]
[2]
  activity of OGT on azido nucleotide sugar compared to regular nucleotide sugar: equally active
